These results are taken from patent US10023570B2 (Array BioPharma, Inc., priority 2015, dated 2018).

Molecules are shown by their SMILES. Counter-ions that a name gives are not always drawn. Like-named read-outs stand apart in the source and are kept apart here.

Assay [1] deals with N-terminal GST tagged recombinant human RET cytoplasmic domain (aa 658-end), wild type RET kinase (Homo sapiens (Human), UniProt P07949). The experiment in a line: RET Enzyme Assay (HTRF KinEASE-TK), wild type RET. It is filed as biochemical. Particulars: wild type RET, 1 mM ATP. On the technique in general: In TR-FRET formats the signal depends on donor and acceptor labels being close together.

The target of assay [2] is Kif5b-RET fusion protein in HEK-293 cells (Homo sapiens, UniProt P07949). The assay is described as follows: cell-based.
Assay [3] concerns the target human KDR protein in HEK-293 cells (Homo sapiens (Human), UniProt P35968). The experiment in a line: KDR Cell Assay (phospho-KDR in HEK-293 cells expressing inducible KDR). It is filed as cell-based. Particulars: pKDR Cell HEK 10% FBS IC50, HEK-293 cells expressing inducible KDR, VEGF stimulated. In short, it runs like this:
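HEK-293 cells with inducible human KDR were treated with compound for 1 h in DMEM (0.25% DMSO final), then lysed. Phospho-KDR was quantified by Meso Scale immunoassay, expressed as percent of control, and IC50 taken where a 4-parameter logistic fit crossed 50 POC.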

Setting [4] is: HEK-293 cells expressing Kif5b-RET, phospho-RET(Tyr1062), read-out: KIF5B-RET pTYR1062 Cell IC50.
[5] abbreviates: HEK-293 cells expressing Kif5b-RET, read-out: KIF5B-RET pTYR1062 Cell IC50.

Chain of Kif5b-RET fusion protein in HEK-293 cells (P07949 29-1114 limits assumed): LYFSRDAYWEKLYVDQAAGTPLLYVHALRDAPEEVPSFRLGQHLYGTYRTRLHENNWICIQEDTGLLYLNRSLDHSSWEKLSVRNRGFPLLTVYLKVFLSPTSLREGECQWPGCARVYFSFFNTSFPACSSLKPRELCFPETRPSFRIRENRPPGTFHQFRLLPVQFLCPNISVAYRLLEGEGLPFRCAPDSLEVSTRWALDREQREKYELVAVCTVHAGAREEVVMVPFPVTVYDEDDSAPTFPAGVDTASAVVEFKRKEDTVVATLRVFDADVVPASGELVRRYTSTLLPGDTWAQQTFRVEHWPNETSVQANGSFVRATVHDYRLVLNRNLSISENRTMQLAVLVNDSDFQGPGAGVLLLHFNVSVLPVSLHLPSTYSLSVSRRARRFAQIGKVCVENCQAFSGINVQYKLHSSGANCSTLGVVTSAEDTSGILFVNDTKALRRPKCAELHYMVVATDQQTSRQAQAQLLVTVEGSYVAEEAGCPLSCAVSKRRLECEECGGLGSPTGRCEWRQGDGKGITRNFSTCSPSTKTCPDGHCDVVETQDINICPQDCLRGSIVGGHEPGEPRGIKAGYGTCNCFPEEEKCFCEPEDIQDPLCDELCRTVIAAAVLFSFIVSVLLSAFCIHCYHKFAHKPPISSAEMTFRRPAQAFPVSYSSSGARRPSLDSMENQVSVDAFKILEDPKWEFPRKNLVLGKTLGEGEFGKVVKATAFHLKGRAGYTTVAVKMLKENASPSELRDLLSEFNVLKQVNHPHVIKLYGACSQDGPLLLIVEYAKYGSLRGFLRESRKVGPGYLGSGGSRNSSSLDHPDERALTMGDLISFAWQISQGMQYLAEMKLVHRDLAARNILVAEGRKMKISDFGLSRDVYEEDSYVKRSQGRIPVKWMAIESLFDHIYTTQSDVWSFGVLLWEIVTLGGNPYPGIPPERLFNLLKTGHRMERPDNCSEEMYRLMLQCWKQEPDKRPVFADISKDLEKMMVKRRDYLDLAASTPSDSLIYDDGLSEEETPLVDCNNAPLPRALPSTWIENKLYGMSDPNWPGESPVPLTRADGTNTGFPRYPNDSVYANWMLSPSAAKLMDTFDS
Chain of human KDR protein in HEK-293 cells (P35968 20-1356): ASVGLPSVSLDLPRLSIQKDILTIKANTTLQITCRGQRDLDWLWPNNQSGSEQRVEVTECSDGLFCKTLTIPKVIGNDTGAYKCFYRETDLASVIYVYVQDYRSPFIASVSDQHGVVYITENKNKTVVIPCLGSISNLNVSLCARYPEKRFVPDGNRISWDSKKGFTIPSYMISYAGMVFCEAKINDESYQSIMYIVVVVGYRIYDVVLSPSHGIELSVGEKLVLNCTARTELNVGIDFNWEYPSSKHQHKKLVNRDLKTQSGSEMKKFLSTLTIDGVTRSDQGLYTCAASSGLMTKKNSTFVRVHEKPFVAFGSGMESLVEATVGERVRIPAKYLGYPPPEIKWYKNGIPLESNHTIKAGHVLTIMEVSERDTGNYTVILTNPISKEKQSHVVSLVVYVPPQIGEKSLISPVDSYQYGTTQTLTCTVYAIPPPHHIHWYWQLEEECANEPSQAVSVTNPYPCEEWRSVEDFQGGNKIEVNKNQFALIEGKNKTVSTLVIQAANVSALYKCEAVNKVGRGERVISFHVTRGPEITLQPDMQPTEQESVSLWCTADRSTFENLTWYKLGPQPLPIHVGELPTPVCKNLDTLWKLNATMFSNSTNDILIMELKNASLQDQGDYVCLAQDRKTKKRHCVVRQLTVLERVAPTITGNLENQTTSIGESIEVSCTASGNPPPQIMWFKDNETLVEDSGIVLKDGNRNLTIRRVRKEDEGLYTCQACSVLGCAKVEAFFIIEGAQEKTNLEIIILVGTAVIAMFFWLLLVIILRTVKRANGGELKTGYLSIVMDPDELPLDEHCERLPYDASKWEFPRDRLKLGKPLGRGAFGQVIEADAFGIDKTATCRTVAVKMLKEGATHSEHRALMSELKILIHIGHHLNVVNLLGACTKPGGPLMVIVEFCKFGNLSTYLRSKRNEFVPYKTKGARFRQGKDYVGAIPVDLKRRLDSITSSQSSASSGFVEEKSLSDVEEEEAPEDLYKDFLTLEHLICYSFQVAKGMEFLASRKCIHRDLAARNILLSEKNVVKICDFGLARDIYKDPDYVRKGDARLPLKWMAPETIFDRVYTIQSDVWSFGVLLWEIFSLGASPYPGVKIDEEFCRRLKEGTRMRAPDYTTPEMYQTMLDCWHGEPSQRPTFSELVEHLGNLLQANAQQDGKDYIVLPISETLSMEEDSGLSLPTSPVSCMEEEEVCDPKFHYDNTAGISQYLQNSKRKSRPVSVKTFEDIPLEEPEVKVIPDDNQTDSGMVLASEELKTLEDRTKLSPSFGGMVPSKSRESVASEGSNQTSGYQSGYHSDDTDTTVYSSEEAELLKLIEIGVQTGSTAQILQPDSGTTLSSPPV
Chain of N-terminal GST tagged recombinant human RET cytoplasmic domain (aa 658-end), wild type RET kinase (P07949 658-1114): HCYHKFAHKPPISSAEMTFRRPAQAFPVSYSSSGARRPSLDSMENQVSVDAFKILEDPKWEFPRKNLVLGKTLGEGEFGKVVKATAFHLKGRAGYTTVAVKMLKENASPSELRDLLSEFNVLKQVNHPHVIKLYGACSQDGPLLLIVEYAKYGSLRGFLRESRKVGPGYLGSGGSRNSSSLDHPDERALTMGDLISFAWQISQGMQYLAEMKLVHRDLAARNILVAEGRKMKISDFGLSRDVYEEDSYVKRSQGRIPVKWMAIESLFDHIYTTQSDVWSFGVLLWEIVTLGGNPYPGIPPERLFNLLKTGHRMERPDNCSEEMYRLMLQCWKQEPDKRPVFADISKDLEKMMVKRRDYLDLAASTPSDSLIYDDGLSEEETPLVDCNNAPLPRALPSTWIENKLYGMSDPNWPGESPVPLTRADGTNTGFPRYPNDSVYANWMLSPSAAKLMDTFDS

Take `CCC(C)(O)CC(=O)N1CCN(c2ccc(-c3cc(-c4cnn(C)c4)cn4ncc(C#N)c34)cn2)CC1` (stereo not drawn) [Example 63, 4-(6-(4-(3-hydroxy-3-methylpentanoyl)piperazin-1-yl)pyridin-3-yl)-6-(1-methyl-1H-pyrazol-4-yl)pyrazolo[1,5-a]pyridine-3-carbonitrile]: the IC50 (as a rule, the point on the concentration scale where inhibition reaches its midpoint) in assay [1] is 11.5 nM; in assay [2] (setting [4]) it was 8.2 nM; in assay [3] (10% FBS), 527 nM.
As for `Cn1cc(-c2cc(-c3ccc(N4CCC(NC(=O)C(C)(C)O)CC4)nc3)c3c(C#N)cnn3c2)cn1` [Example 179, N-(1-(5-(3-cyano-6-(1-methyl-1H-pyrazol-4-yl)pyrazolo[1,5-a]pyridin-4-yl)pyridin-2-yl)piperidin-4-yl)-2-hydroxy-2-methylpropanamide], the results for the IC50 in assay [1], in assay [2] (setting [4]) and in assay [3] (10% FBS) were 18 nM, 30.8 nM and 547 nM, respectively.
For the compound `C[C@@H](CO)Cn1cc(-c2cc(-c3ccc(N4CCN(Cc5ccccc5)CC4)nc3)c3c(C#N)cnn3c2)cn1` [Example 592, (R)-4-(6-(4-benzylpiperazin-1-yl)pyridin-3-yl)-6-(1-(3-hydroxy-2-methylpropyl)-1H-pyrazol-4-yl)pyrazolo[1,5-a]pyridine-3-carbonitrile], the values for the IC50 in assay [1], in assay [2] (setting [5]) and in assay [3] were 16.1 nM, 17.4 nM and 283 nM, respectively.
The like results for `CC(C)OCCN1CCN(c2ccc(-c3cc(-c4cnn(C)c4)cn4ncc(C#N)c34)cn2)CC1` [Example 392, 4-(6-(4-(2-isopropoxyethyl)piperazin-1-yl)pyridin-3-yl)-6-(1-methyl-1H-pyrazol-4-yl)pyrazolo[1,5-a]pyridin-3-carbonitrile] were, in that order, 8.5 nM, 3.6 nM and 765 nM.
Consider `CC(C)NC(=O)NC1CCN(c2ccc(-c3cc(-c4cnn(C)c4)cn4ncc(C#N)c34)cn2)CC1` [Example 187, 1-(1-(5-(3-cyano-6-(1-methyl-1H-pyrazol-4-yl)pyrazolo[1,5-a]pyridin-4-yl)pyridin-2-yl)piperidin-4-yl)-3-isopropylurea], for which the IC50 worked out at 15.9 nM in assay [1], 20.4 nM in assay [2] (setting [4]) and 871 nM in assay [3] (10% FBS).
For `Cn1cc(-c2cc(-c3ccc(N4CCN(C(=O)C(C)(F)F)CC4)nc3)c3c(C#N)cnn3c2)cn1` [Example 59, 4-(6-(4-(2,2-difluoropropanoyl)piperazin-1-yl)pyridin-3-yl)-6-(1-methyl-1H-pyrazol-4-yl)pyrazolo[1,5-a]pyridine-3-carbonitrile] the same measures were 16.3 nM, 26.6 nM and 554 nM.
With `COc1cccnc1CN1CCN(c2ccc(-c3cc(-c4cnn(C)c4)cn4ncc(C#N)c34)cn2)CC1` [Example 463, 4-(6-(4-((3-methoxypyridin-2-yl)methyl)piperazin-1-yl)pyridin-3-yl)-6-(1-methyl-1H-pyrazol-4-yl)pyrazolo[1,5-a]pyridine-3-carbonitrile formate], the IC50 in assay [1] is 9.7 nM; in assay [2] it was 17.7 nM; in assay [3], 678 nM.
For `CC(C)COC1CCN(c2ccc(-c3cc(-c4cnn(C)c4)cn4ncc(C#N)c34)cn2)CC1` [Example 197, 4-(6-(4-isobutoxypiperidin-1-yl)pyridin-3-yl)-6-(1-methyl-1H-pyrazol-4-yl)pyrazolo[1,5-a]pyridine-3-carbonitrile], the results for the IC50 in assay [1], in assay [2] (setting [4]) and in assay [3] (10% FBS) were 14 nM, 39.6 nM and 1300 nM, respectively.
For `CCONC(=O)C1CCN(c2ccc(-c3cc(-c4cnn(C)c4)cn4ncc(C#N)c34)cn2)CC1` [Example 237, 1-(5-(3-cyano-6-(1-methyl-1H-pyrazol-4-yl)pyrazolo[1,5-a]pyridin-4-yl)pyridin-2-yl)-N-ethoxypiperidine-4-carboxamide] the same measures were 6.1 nM, 15.8 nM and 840 nM.
The like results for `C[C@H](NC(=O)C1CCN(c2ccc(-c3cc(-c4cnn(C)c4)cn4ncc(C#N)c34)cn2)CC1)C(F)(F)F` [Example 231, (S)-1-(5-(3-cyano-6-(1-methyl-1H-pyrazol-4-yl)pyrazolo[1,5-a]pyridin-4-yl)pyridin-2-yl)-N-(1,1,1-trifluoropropan-2-yl)piperidine-4-carboxamide] were, in that order, 6.9 nM, 5.6 nM and 279 nM.
`CC(C)OCCNC(=O)C1CCN(c2ccc(-c3cc(-c4cnn(C)c4)cn4ncc(C#N)c34)cn2)CC1` [Example 234, 1-(5-(3-cyano-6-(1-methyl-1H-pyrazol-4-yl)pyrazolo[1,5-a]pyridin-4-yl)pyridin-2-yl)-N-(2-isopropoxyethyl) piperidine-4-carboxamide]: the IC50 in assay [1] worked out at 25.6 nM; in assay [2] (setting [4]) it was 31.9 nM; in assay [3] (10% FBS), 1210 nM.
In the case of `C[C@H](O)[C@@H](C)N1CCN(c2ccc(-c3cc(-c4cnn(C)c4)cn4ncc(C#N)c34)cn2)CC1` (racemic) [Example 165, rac-4-(6-(4-((2R*,3S*)-3-hydroxybutan-2-yl)piperazin-1-yl)pyridin-3-yl)-6-(1-methyl-1H-pyrazol-4-yl)pyrazolo[1,5-a]pyridine-3-cartonitrile], the IC50 in assay [1] stood at 24.8 nM; in assay [2] it was 28.9 nM; in assay [3] (10% FBS) it was 2020 nM.
Regarding `Cn1cc(-c2cc(-c3ccc(N4CCN(C(=O)CNC(C)(C)C)CC4)nc3)c3c(C#N)cnn3c2)cn1` [Example 22, 4-(6-(4-(2-(tert-butylamino)acetyl)piperazin-1-yl)pyridin-3-yl)-6-(1-methyl-1H-pyrazol-4-yl)pyrazolo[1,5-a]pyridine-3-carbonitrile dihydrochloride], the IC50 in assay [1] turned out to be 14.8 nM; in assay [2] (read-out: KIF5B-RET pTYR1062 Cell IC50), 22.5 nM; in assay [3] (10% FBS), 630 nM.
In the case of `Cn1cc(-c2cc(-c3ccc(N4CCN(CCNC(=O)OC(C)(C)C)CC4)nc3)c3c(C#N)cnn3c2)cn1` [Example 506, tert-butyl (2-(4-(5-(3-cyano-6-(1-methyl-1H-pyrazol-4-yl)pyrazolo[1,5-a]pyridin-4-yl)pyridin-2-yl)piperazin-1-yl)ethyl)carbamate], the results for the IC50 in assay [1], in assay [2] and in assay [3] were 31.3 nM, 6.5 nM and 212 nM, respectively.
In the case of `Cn1cc(-c2cc(-c3ccc(N4CCN(CC(O)C(C)(C)C)CC4)nc3)c3c(C#N)cnn3c2)cn1` (stereo not drawn) [Example 148, 4-(6-(4-(2-hydroxy-3,3-dimethylbutyl)piperazin-1-yl)pyridin-3-yl)-6-(1-methyl-1H-pyrazol-4-yl)pyrazolo[1,5-a]pyridine-3-carbonitrile], the IC50 amounted to 19.8 nM in assay [1], 46.7 nM in assay [2] (setting [4]) and 1060 nM in assay [3] (10% FBS).
The like results for `CN(C)C(=O)NC1CCN(c2ccc(-c3cc(-c4cnn(C)c4)cn4ncc(C#N)c34)cn2)CC1` [Example 186, 3-(1-(5-(3-cyano-6-(1-methyl-1H-pyrazol-4-yl)pyrazolo[1,5-a]pyridin-4-yl)pyridin-2-yl)piperidin-4-yl)-1,1-dimethylurea] were, in that order, 14.3 nM, 22.5 nM and 451 nM.
For `C[C@@H](O)C(=O)N1CCN(c2ccc(-c3cc(-c4cnn(C)c4)cn4ncc(C#N)c34)cn2)CC1` [Example 32, (R)-4-(6-(4-(2-hydroxypropanoyl)piperazin-1-yl)pyridin-3-yl)-6-(1-methyl-1H-pyrazol-4-yl)pyrazolo[1,5-a]pyridine-3-carbonitrile] the same measures were 23.9 nM, 108 nM and 749 nM.
